Laboratory results taken from publication PMC2628629 (Bioorganic & medicinal chemistry letters, 2008).

Biological target: E. coli MenE (Escherichia coli, UniProt P37353)
Experiment: MenE inhibition, coupled assay with MenE and MenB
Format: biochemical
Conditions: for Inhibition of MenE, result in words: inhibitor at up to 200 μM

E. coli MenE, sequence (P37353 whole entry): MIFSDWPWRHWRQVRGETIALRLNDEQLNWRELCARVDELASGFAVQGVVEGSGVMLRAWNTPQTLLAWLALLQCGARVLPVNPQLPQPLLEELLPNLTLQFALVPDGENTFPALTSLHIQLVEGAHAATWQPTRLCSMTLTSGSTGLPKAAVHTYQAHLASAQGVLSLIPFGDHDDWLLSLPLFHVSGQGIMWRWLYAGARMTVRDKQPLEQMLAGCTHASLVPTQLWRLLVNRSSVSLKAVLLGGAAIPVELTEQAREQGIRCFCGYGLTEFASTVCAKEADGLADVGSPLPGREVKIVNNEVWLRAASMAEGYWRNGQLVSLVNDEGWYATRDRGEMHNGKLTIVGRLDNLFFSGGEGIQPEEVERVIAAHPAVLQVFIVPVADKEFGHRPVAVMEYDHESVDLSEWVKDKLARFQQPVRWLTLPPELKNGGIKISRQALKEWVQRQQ

COC(=O)c1ccccc1C(=O)CCC(=O)NS(=O)(=O)OC[C@H]1O[C@@H](n2cnc3c(N)ncnc32)[C@H](O)[C@@H]1O [Compound 1, MeOSB-AMS]
Inhibition of MenE, result in words: effective inhibitors

COC(=O)c1ccccc1C(=O)CCC(=O)NS(=O)(=O)NC[C@H]1O[C@@H](n2cnc3c(N)ncnc32)[C@H](O)[C@@H]1O [Compound 2, MeOSB-AMSN]
Inhibition of MenE, result in words: effective inhibitors

COC(=O)c1ccccc1C(=O)CC/C=C/S(=O)(=O)NC[C@H]1O[C@@H](n2cnc3c(N)ncnc32)[C@H](O)[C@@H]1O [Compound 3, MeOSB-AVSN]
Kinetic analysis of MenE inhibition (mode of binding): slow-binding inhibitor
